Experiment [1] relates to human mesothelial (HM) cells. The experiment can be described thus: HMGB1 localization in HM cells by immunofluorescence staining. Format: cell-based. To be noted: 6 hrs exposure; H2O2 100 μM, actinomycin D 0.1 μM. The procedure:
After fixation and permeabilization, cells were incubated with HMGB1 antibody (BD Bioscience Pharmingen) and a fluorescein-conjugated secondary antibody (Chemicon, Temecula). Nuclei were stained with DAPI.

The next experiment deals with macrophages. Put plainly: TNF-α secretion by macrophages given culture medium from exposed HM. The format is cell-based, human. To be noted: concentrated HM culture medium added to macrophages. The protocol:
Expression levels of HMGB1 and its receptors RAGE, TLR2 and TLR4 in a panel of 8 MM cell lines and 8 distinct primary HM cultures were determined Primary human mesothelial cells (HM) were obtained from pleural effusions of eight different patients, pathologically diagnosed free of malignancy at the Queen's Medical Center, Honolulu, Hi. […] HM were cultured in Dulbecco's Modified Eagle Medium (DMEM) (Mediatech Inc., Manassas, Va.) containing 20% fetal bovine serum (FBS) (Gibco, Carlsbad, Calif.) and penicillin-streptomycin (100 units/ml penicillin G and 100 μg/ml streptomycin sulfate) (GIBCO), and were used between second and fifth passages. THP-1 human monocytes (ATCC, Manassas, Va.) were differentiated into macrophages by phorbol 12-myristate 13-acetate (TPA). The pleural malignant mesothelioma (MM) cell lines were established from surgically resected human MM specimens and used comparatively in our studies. REN cells were provided by Dr. Steven Albelda (University of Pennsylvania, Philadelphia, Pa.), while all other cell lines used in this study were provided by Dr. Harvey I. Pass (NYU School of Medicine, New York, N.Y.). MM cells were maintained in DMEM containing 10% FBS. All cells were cultured at 37° C. in a humidified atmosphere with 5% CO2 and grown to approximately 80-90% confluency. […]
Next, it was determined whether the release of HMGB1 was linked to an inflammatory response. […]

Structures are written as SMILES. *1 amine or outer side, *2 acyl side, *3 side chain or, on linkers, in order; H or OH if unused. Where a SMILES comes first, the peptide text is derived from it. Bridges are numbered along the chain shown (N, C = ends). Roman numbers before positions name the chains, in order. [ ]: non-standard residue; d: D form. Actinocin(9to1) = Cc1c2oc3c(C)ccc(C(=O)[*:1])c3nc-2c(C(=O)[*:2])c(N)c1=O; NMeV = CN[C@H](C(=O)O)C(C)C; Sar = CNCC(=O)O

With `OO` [H2O2], in experiment [1], the “HMGB1 localization in HM cells” value is given as “translocated from the nucleus into the cytosol”.

On to `Cc1c2oc3c(C)ccc(C(=O)N[C@@H]4C(=O)N[C@H](C(C)C)C(=O)N5CCC[C@H]5C(=O)N(C)CC(=O)N(C)[C@@H](C(C)C)C(=O)O[C@@H]4C)c3nc-2c(C(=O)N[C@@H]2C(=O)N[C@H](C(C)C)C(=O)N3CCC[C@H]3C(=O)N(C)CC(=O)N(C)[C@@H](C(C)C)C(=O)O[C@@H]2C)c(N)c1=O` [actinomycin D] (I: T[dV]P[Sar][NMeV] / II: T[dV]P[Sar][NMeV]; ester I:1-I:C, II:1-II:C; linker I:N-II:N via Actinocin(9to1)), for which the “macrophage secretion of TNF-α induced by culture medium from HM exposed to the substance” value in the experiment with macrophages is “did not induce TNF-α secretion”. Moreover, in experiment [1], the “HMGB1 localization in HM cells” value is on record as “remained within the nucleus”.

Source of the values: US9244074B2 (University of Hawaii, priority 2011, dated 2016).
